Here are results for one compound from PMC9609767, “Radiosynthesis and Preclinical Evaluation of an ^18F-Labeled Triazolopyridopyrazine-Based Inhibitor for Neuroimaging of the Phosphodiesterase 2A (PDE2A)” (Pharmaceuticals, 2022).

A short description of data set [1]: In vivo metabolism in CD-1 mice (radio-HPLC of plasma and brain). The conditions noted are these: mouse. The method, then:
Two non-anesthetized female CD-1 mice (30 and 33 g, 90 days) were injected intravenously with [^18F]11 (28 MBq = 94 nmol/kg and 25 MBq = 78 nmol/kg). The animals were anesthetized by isoflurane inhalation at 28 min p.i. and blood was collected from the retro-orbital plexus, followed by cervical dislocation at 30 min p.i. Immediately afterwards, the brains were isolated, washed twice with isotonic saline and stored on ice. Plasma was obtained from the whole blood sample by centrifugation (8.000 rpm, 2 min, ambient temperature). All samples were weighed and the radioactivity was measured in a dose calibrator (ISOMED 2010 Dose Calibrator, NUVIA Instruments GmbH, Dresden, Germany). Afterwards, the brains were homogenized in 1 mL demineralized water on ice (Potter S, B. Braun Biotech, Melsungen, Germany).
Protein precipitation was performed by the addition of ice-cold ACN/H2O (9:1, v/v) in a ratio of 4:1 (v/v) of organic solvent to plasma or brain homogenate, respectively. The samples were vortexed for 3 min, equilibrated on ice for 3 min, and centrifuged for 10 min at 10,000 rpm and the supernatant collected. The precipitates were washed with 100 μL of the solvent mixture and subjected to the same procedure. The combined supernatants were concentrated at 70 °C under argon flow to a final volume of approximately 100 μL and analysed by analytical radio-HPLC with a gradient system (see radiochemistry general section). The peak corresponding to the radiotracer in the radio-chromatogram was identified by co-injecting the sample with the reference compound 11. To determine the percentage of activity in the supernatants compared to total activity, aliquots of each step as well as the precipitates were quantified by an automated gamma counter (1480 WIZARD, Perkin Elmer, Turku, Finland). For plasma and brain samples recoveries of ≥91% of total activity were obtained.

The nature of data set [2]: Dynamic PET/MR study in SPRD rat. The data set is classed as in vivo. The method, then:
For the time of the experiments, one female CD-1 mouse (10 weeks; 30.5 g) and one female SPRD rat (9 weeks; 256 g) were kept in a dedicated climatic chamber with free access to water and food under a 12:12 h dark:light cycle at a constant temperature (24 °C). The animals were anesthetized (Anaesthesia Unit U-410, agntho’s, Lidingö, Sweden) with isoflurane (2.0%, 300 mL/min) delivered in a 60% oxygen/40% air mixture (Gas Blender 100 Series, MCQ instruments, Rome, Italy) and their body temperature maintained at 37 °C with a thermal bed system for the duration of the PET studies. A dynamic PET scan (PET/MR 1T, Mediso nanoScan®, Hungary) started 20 s before intravenous injection into the tail vein of [^18F]11 and was performed in mouse for 60 min (4.9 MBq in 150 μL isotonic saline; 20.5 nmol/kg; Am: 8.9 GBq/μmol, EOS) in rat for 30 min (29.7 MBq in 400 μL isotonic saline; 12 nmol/kg; Am: 11 GBq/μmol, EOS). Each PET image was corrected for random coincidences, dead time, scatter and attenuation (AC), based on a whole body (WB) MR scan. The reconstruction parameters for the list mode data were 3D-ordered subset expectation maximization (OSEM), 4 iterations, 6 subsets, energy window: 400–600 keV, coincidence mode: 1–5, ring difference: 81. Preceding the PET scan a T1 weighted WB gradient echo sequence (TR/TE: 20/6.4 ms, NEX: 1, FA: 25, FOV: 64 × 64 mm, Matrix: 128 × 128, STh: 0.5 mm) was performed for AC and anatomical orientation. PET Images were analyzed with PMOD (PMOD Technologies LLC, v. 4.1, Zurich, Switzerland). The respective brain regions were identified using the mouse brain atlas template Ma-Benveniste-Mirrione-T2 or the rat brain atlas template Schwarz-T2. The regional activity data (radioactivity concentration, kBq/mL) were normalized to the injected dose (MBq) and corrected for the animal weight (g) to provide standardized uptake values (SUV, g/mL). Finally, the results of the PETscans are expressed as mean SUV of the respective region of interest ROI.

Where [3] appears, read: 30 min p.i., i.v., n = 2 (individual values).

Consider `CCCC(O)c1ccc([18F])c(-c2nnc3c(C)nc4ccc(C5CC5)nc4n23)c1` (stereo not drawn) [[^18F]11], for which, in data set [1] (setting [3]), the “fraction of non-metabolized radiotracer in brain” value is 42/50 and the “fraction of non-metabolized radiotracer in plasma” value is “about 7/11”. Besides, the “radiometabolites in the brain (% of the activity)” value in data set [1] (30 min post injection) is ~ 50%. In data set [2] (15 min p.i.), this compound came in with an SUV caudate putamen of 0.51 SUV and an SUV cerebellum of 0.40 SUV. Moreover, the “peak value of brain uptake (SUV)” value in data set [2] (whole brain, at 0.6 min) was 0.97 SUV.
